# Laboratory results taken from paper PMC12040169 (PLOS Biology, 2025).
# Assay: in vitro
# Conditions: human, hela cells, % viability
row,Compound,"viability at 28.5 h, 10 µM"
1,CCCc1cc(CNC(=O)CN2CCCC(C)C2)on1 (centres unmarked) [CBK282045],99.8%
2,CCCc1cc(CNC(=O)c2cc(C3CC3)nn2C)on1 [CBK282048],102%
3,Cc1ccc(CCNC(=O)c2snnc2C)cc1C [CBK282051],89.6%
4,COc1ccc2oc(C(=O)NC(C)(C)CN3CCCCC3)cc2c1 [CBK282053],93.8%
5,CCN1CCCCC1CNC(=O)Cn1nc(C)cc1C (centres unmarked) [CBK282057],98.6%
6,COc1ccc(C(=O)N2CCN3C(=O)CCC32C)s1 (centres unmarked) [CBK282058],98.4%
7,CCCC(C(=O)NC(C)(C)CN1CCCCC1)n1nc(C)cc1C (centres unmarked) [CBK282061],94.8%
8,Cc1ccccc1OCC1CCCN(C(=O)C2CC(=O)OC2(C)C)C1 (centres unmarked) [CBK282062],92.7%
9,CN1CCCC(NC(=O)CCCOc2ccccc2F)C1 (centres unmarked) [CBK282072],101%
10,CC(=O)NCCn1cc2c(n1)[C@H]1CN(C(=O)c3ccccc3)C[C@H]1C2 [CBK282073],111%
11,CC(Cn1cccn1)C(=O)N1CCc2sccc2C1C (centres unmarked) [CBK282074],103%
12,CN(CC(=O)N(C)CC(F)(F)F)Cc1cccnc1 [CBK282075],89.1%
13,CCn1nc(C)c(C(C)NC(=O)c2c3c(nn2CC)CCCC3)c1C (centres unmarked) [CBK282077],85%
14,CCc1noc(C)c1C(=O)NCCN1CC(C)CC(C)C1 (centres unmarked) [CBK282081],113%
15,C=C1C2(C(=O)N3CCC(Oc4cccnc4)CC3)CCC(C2)C1(C)C (centres unmarked) [CBK282082],107%
16,CN(C)CC1CCCCN1C(=O)[C@@H]1C[C@@H]2C=C[C@H]1C2 (some centres unmarked) [CBK282086],105%
17,Cc1nn(C)cc1C(C)NC(=O)C1CC2C=CC1C21CC1 (centres unmarked) [CBK282088],100%
18,CC(Cn1cncn1)C(=O)NC(C)C1CC2CCC1C2 (centres unmarked) [CBK282089],109%
19,CC(NC(=O)CCc1ccncc1)C1CC2CCC1C2 (centres unmarked) [CBK282090],99.8%
20,CC(C)CN1CC(C(=O)N(C)CC2OCCc3ccccc32)CC1=O (centres unmarked) [CBK282093],102%
21,CC1Cc2cc(C(=O)N3CCCCC3CCN3CCCC3)ccc2O1 (centres unmarked) [CBK282094],100%
22,Cc1c(C(=O)NCCN2CCC(C)CC2)oc2c1C(O)CC(C)(C)C2 (centres unmarked) [CBK282100],87.1%
23,Cc1cccc(CN(Cc2ccccc2)C(=O)CCc2ccncc2)n1 [CBK282101],99.1%

row,Compound,"viability at 28.5 h, 10 µM"
1,Cc1cc(C)n(C(C)CC(=O)NCC(C)N2CCC(C)CC2)n1 (centres unmarked) [CBK282104],108%
2,COCc1ccc(C(=O)N2CCCC(c3cc4ncccc4[nH]3)C2)o1 (centres unmarked) [CBK282106],87%
3,CC(Cc1cccs1)C(=O)N1CCn2cnnc2C1 (centres unmarked) [CBK282109],96%
4,Cc1c(CN2CCC(CO)C2)cnn1Cc1ccccc1 (centres unmarked) [CBK282113],99.5%
5,OCCCn1cc(CN2CCC(CO)C2)c2ccccc21 (centres unmarked) [CBK282114],98.6%
6,CC(Cc1ccccn1)NC(=O)Cc1ccc2c(c1)CCCO2 (centres unmarked) [CBK282115],95%
7,CC(CC(=O)N1CCC(Oc2ccccc2F)CC1)n1cccn1 (centres unmarked) [CBK282118],84.6%
8,CCn1cncc1CN1CC2CCCC(O)(c3ccc(F)cc3)C2C1 (centres unmarked) [CBK282119],104%
9,COCCn1cc(CN2CCC(CO)C2)c2ccccc21 (centres unmarked) [CBK282123],99.2%
10,Cc1cc(CN2CCC(O)(c3cccnc3F)CC2)oc1C [CBK282124],83%
11,CC1CCCN(CC(O)c2ccc3c(c2)CC(C)N3C(=O)C2CC2)C1 (centres unmarked) [CBK282125],99.2%
12,CC(C)C(=O)N1CCCc2cc(C(O)CN3CCCCC3)ccc21 (centres unmarked) [CBK282127],104%
13,Cc1ncc(CN(Cc2ccccn2)Cc2ccccc2Cl)n1C [CBK282128],97.6%
14,Cn1cncc1CN(Cc1ccccn1)Cc1ccccc1Cl [CBK282129],105%
15,CCC(=O)N1CCCc2cc(C(O)CN3CCCCC3)ccc21 (centres unmarked) [CBK282130],81.6%
16,O=C(CN1CCN(C2CCCC2)C(=O)C1)N1CCCc2ccccc21 [CBK282132],81.7%
17,CCn1nc(NC(=O)C2Cc3ccccc3CN2C)cc1C (centres unmarked) [CBK282133],93.8%
18,CCCN1C[C@H](NC(=O)CC)[C@@H](c2ccc(OC)cc2)C1 [CBK282134],82.3%
19,CCCN(CC1CCCO1)C(=O)c1cc2ccc(OC)cc2n1C (centres unmarked) [CBK282139],92.8%
20,CCn1cc(CN2CCCCCC2c2cc(C)on2)c(C)n1 (centres unmarked) [CBK282140],80.7%
21,CCn1ncc(CN2CCCCCC2c2cc(C)on2)c1C (centres unmarked) [CBK282141],91.7%
22,CC(=O)N1CCCc2cc(C(O)CN3CCCC(C)C3)ccc21 (centres unmarked) [CBK282142],84.1%
23,CC(=O)N1CCCc2cc(C(O)CN3CCCC(C)(C)C3)ccc21 (centres unmarked) [CBK282143],94.3%

row,Compound,"viability at 28.5 h, 10 µM"
1,O=C(C1CCCC1)N1CCCc2cc(C(O)CN3CCCC3)ccc21 (centres unmarked) [CBK282145],94.2%
2,CCN(CC)CC1CCCN(C(=O)Cn2ccc3ccc(F)cc32)C1 (centres unmarked) [CBK282146],87.8%
3,Cc1nc2c(C)cccc2cc1C(=O)NCCCc1ccccn1 [CBK282148],82.8%
4,CC(=O)N1CCCc2cc(C(O)CN(C)Cc3ccccc3)ccc21 (centres unmarked) [CBK282149],88.5%
5,CC(Cc1ccccn1)N(C)C(=O)c1cccc(N2CCCC2=O)c1 (centres unmarked) [CBK282153],104%
6,Cn1nc(C2CCCN(C(=O)c3cccc(F)c3)C2)c2cccnc21 (centres unmarked) [CBK282155],85.8%
7,CC1CC1C(=O)N1CCCC(c2cc3cccnc3[nH]2)C1 (centres unmarked) [CBK282156],80.3%
8,Cc1ccc2c(CC(=O)N(C)CCN(C)C)c(C)[nH]c2c1C [CBK282157],102%
9,Cc1oc2ccc(O)cc2c1C(=O)N(C)CCN1CCCCC1 [CBK282158],83%
10,CCn1cc(CN2CCCCCC2c2cc(C)no2)c(C)n1 (centres unmarked) [CBK282159],95.6%
11,Cc1oc2ccc(O)cc2c1C(=O)NCCCN1CC(C)CC(C)C1 (centres unmarked) [CBK282161],110%
12,Cc1cccc(C2(O)CCN(C(=O)c3cc(C(C)C)nn3C)CC2)c1 [CBK282163],87.5%
13,CC1CC1C(=O)N1CCCC(c2nn(C)c3ncccc23)C1 (centres unmarked) [CBK282167],85.7%
14,Cc1oc2c(c1CC(=O)N(C)CCN(C)C)C(=O)CC(C)(C)C2 [CBK282171],105%
15,CN(C)CCN(C)C(=O)Cc1csc(-c2ccccc2F)n1 [CBK282173],112%
16,Cc1cc(C)c2c(CC(=O)N(C)CCN(C)C)coc2c1 [CBK282174],106%
17,CN(C)CCN(C)C(=O)Cc1csc(-c2cccc(Cl)c2)n1 [CBK282176],111%
18,O=C(CN1CCCC1=O)NC(Cc1cccs1)c1nccs1 (centres unmarked) [CBK282177],104%
19,CN(CCN1CCCCC1)C(=O)C1(c2ccc(F)cc2)CC1 [CBK282178],95.4%
20,COCCC(=O)NC(Cc1cccs1)c1nccs1 (centres unmarked) [CBK282180],83.3%
21,CN(C)CCN(C(=O)Cc1ccc2c(c1)CCC2)C1CCN(C)CC1 [CBK282182],84.6%
22,Cc1nccn1CC1(O)CCN(C(=O)Cc2cccc(F)c2)CC1 [CBK282184],109%
